Test results: article PMC11161644, “An effective and rapidly degradable disinfectant from disinfection byproducts” (Nature Communications, 2024)

Assay: UPLC/ESI-tqMS time profile of 2,6-DCQ and its degradation products in simulated seawater (pH 8.2, darkness); OH-DCQ formation
Settings: for Concentration: 2,6-DCQ degradation / OH-DCQ formation; for Peak area: 2,6-DCQ degradation
Protocol: A Waters UPLC system coupled with ESI-tqMS was used to characterize the degradation products of 2,6-DCQ. The UPLC separation was performed using an HSS T3 column (100 × 2.1 mm, 1.8 μm particle size, Waters) with a column temperature of 35 °C. A gradient eluent of methanol–water was applied at a flow rate of 0.4 mL min^−1. The gradient program was set as follows: methanol/water (v/v) ratio changed linearly from 5/95 to 90/10 in the first 8 min and then returned to 5/95 during 8.0‒8.1 min, which was held for 2.9 min for re-equilibration. The ESI-tqMS was set as follows: ESI negative mode, capillary voltage 2.8 kV, cone voltage 10–50 V (depending on analytes), cone gas flow 50 L h^−1, source temperature 120 °C, desolvation temperature 400 °C, desolvation gas flow 800 L h^−1, collision energy 15–50 eV (depending on analytes), collision gas (argon) flow 0.25 mL min^−1, and mass resolution 15 (1-unit resolution).
The degradation of 2,6-DCQ in seawater was simulated by adding 10 mg L^−1 2,6-DCQ to 50 mL ultrapure water, which was adjusted to pH 8.2 with 5 mM sodium carbonate (to simulate the alkalinity in seawater and also to be compatible with the subsequent UPLC/ESI-tqMS analysis). The sample was kept in darkness for 0–24 h, during which the pH of the sample was maintained at 8.1 ± 0.1. At a designated reaction time, 7.5 μL of the sample was injected into the UPLC system. For a nonhalogenated degradation product, the selected ion recording (SIR) mode with a dwell time of 0.05 s was adopted to obtain the retention time. For halogenated degradation products, the multiple reaction monitoring mode with a dwell time of 0.05 s was used to obtain the retention time and the isotopic abundance ratio. To investigate the time-dependent profile of 2,6-DCQ and its degradation products, the peak area of each compound was determined using the SIR mode in the UPLC/ESI-tqMS analysis.
The second aliquot was subjected to analysis of total organic halogen to quantify the collected OH-DCQ. The determination of total organic halogen was based on Standard Method 5320B[52], with modifications of using off-line ion chromatography for halide detection. Briefly, the aliquot was dissolved in 100 mL ultrapure water and acidified to pH 2 with concentrated nitric acid[52] prior to adsorption onto pre-packed activated carbon columns (Mitsubishi). A three-channel adsorption module (TXA03C, Mitsubishi Chemical Analytech) was used for adsorption. An AQF-100 automatic quick furnace (Mitsubishi Chemical Analytech) was used for pyrolysis. During the pyrolysis process, the chlorine atoms in OH-DCQ were converted to chloride. The chloride ion concentration was determined using an ICS-3000 ion chromatography system (Dionex). 2,6-DCQ was used as a standard compound for measuring total organic halogen to determine the recovery of the analysis. The total organic halogen analysis was conducted in duplicate.

For O=C1C=C(Cl)C(=O)C(Cl)=C1O [OH-DCQ, 3-hydroxyl-2,6-dichloro-1,4-benzoquinone], the “Degradation time at which concentration reached its maximum” value (10 mg L−1, pH 8.2) was 5.5 h, the Concentration (degradation time 0 h) was 388.2 ng/mL and the Concentration (degradation time 0.25 h) was 1568 ng/mL. For the same compound, the Concentration (degradation time 0.5 h) was 2136 ng/mL, the Concentration (degradation time 0.75 h) was 2523 ng/mL and the Concentration (degradation time 1 h) was 2564 ng/mL. For the same compound, the Concentration (degradation time 1.25 h) was 2851 ng/mL, the Concentration (degradation time 1.5 h) was 2913 ng/mL and the Concentration (degradation time 1.75 h) was 3134 ng/mL. It also gave a Concentration (degradation time 2 h) of 3157 ng/mL, a Concentration (degradation time 2.25 h) of 3402 ng/mL and a Concentration (degradation time 2.5 h) of 3558 ng/mL. For the same compound, the Concentration (degradation time 2.75 h) was 3742 ng/mL, the Concentration (degradation time 3 h) was 3837 ng/mL and the Concentration (degradation time 3.25 h) was 4027 ng/mL. For the same compound, the Concentration (degradation time 3.5 h) was 4055 ng/mL, the Concentration (degradation time 3.75 h) was 4030 ng/mL and the Concentration (degradation time 4 h) was 4244 ng/mL. The Concentration (degradation time 4.5 h) was 4217 ng/mL, the Concentration (degradation time 5 h) was 4099.6 ng/mL and the Concentration (degradation time 5.5 h) was 4364 ng/mL. It also gave a Concentration (degradation time 6 h) of 4268 ng/mL, a Concentration (degradation time 8 h) of 4192.4 ng/mL and a Concentration (degradation time 10 h) of 3830 ng/mL. It also gave a Concentration (degradation time 12 h) of 3886 ng/mL, a Concentration (degradation time 14 h) of 3910 ng/mL and a Concentration (degradation time 16 h) of 3929.8 ng/mL. It also gave a Concentration (degradation time 18 h) of 3711 ng/mL, a Concentration (degradation time 20 h) of 3724 ng/mL and a Concentration (degradation time 24 h) of 3646 ng/mL. The Peak area (pH 8.2, darkness, 0 h) was 2432, the Peak area (pH 8.2, darkness, 0.25 h) was 9916 and the Peak area (pH 8.2, darkness, 0.5 h) was 13509. It also gave a Peak area (pH 8.2, darkness, 0.75 h) of 15961, a Peak area (pH 8.2, darkness, 1 h) of 16217 and a Peak area (pH 8.2, darkness, 1.25 h) of 18034. The Peak area (pH 8.2, darkness, 1.5 h) was 18424, the Peak area (pH 8.2, darkness, 1.75 h) was 19823 and the Peak area (pH 8.2, darkness, 2 h) was 19969. The Peak area (pH 8.2, darkness, 2.25 h) was 21520, the Peak area (pH 8.2, darkness, 2.5 h) was 22505 and the Peak area (pH 8.2, darkness, 2.75 h) was 23670. For the same compound, the Peak area (pH 8.2, darkness, 3 h) was 24273, the Peak area (pH 8.2, darkness, 3.25 h) was 25472 and the Peak area (pH 8.2, darkness, 3.5 h) was 25650. The Peak area (pH 8.2, darkness, 3.75 h) was 25488, the Peak area (pH 8.2, darkness, 4 h) was 26847 and the Peak area (pH 8.2, darkness, 4.5 h) was 26676. It also gave a Peak area (pH 8.2, darkness, 5 h) of 25931, a Peak area (pH 8.2, darkness, 5.5 h) of 27605 and a Peak area (pH 8.2, darkness, 6 h) of 26995. For the same compound, the Peak area (pH 8.2, darkness, 8 h) was 26518, the Peak area (pH 8.2, darkness, 10 h) was 24223 and the Peak area (pH 8.2, darkness, 12 h) was 24578. For the same compound, the Peak area (pH 8.2, darkness, 14 h) was 24730, the Peak area (pH 8.2, darkness, 16 h) was 24857 and the Peak area (pH 8.2, darkness, 18 h) was 23474. The Peak area (pH 8.2, darkness, 20 h) was 23553, the Peak area (pH 8.2, darkness, 24 h) was 23064 and the “Maximum concentration as share of initial molar concentration of 2,6-DCQ” value (pH 8.2, darkness) was 41%.
